According to patent publication US6548082B1, “Methods for treating apnea and apnea disorders using optically pure R(+) ondansetron” (Sepracor Inc., priority 1999, dated 2003):
Where two headings read alike, the source gives them in different places.

Columns and labels:
[1] = system: mongrel dogs; conditions: dog, in vivo
Description: (§1) An investigation was conducted to determine the effect of racemic ondansetron and the R(+)- and S(−)-enanatiomers of ondansetron in causing cardiac arrhythmias (cardiotoxicity) resulting from a lengthening of the cardiac action potential.
(§2) The order of administration was randomized to ensure that each dog received only one treatment.

[2] = system: mongrel dogs; experiment: Electrophysiological (EKG) effects of ondansetron enantiomers and racemate in dogs, rising cumulative doses; conditions: for Death or survival of dogs during or shortly after the experiment: four dogs per treatment, 0-4.0 mg/kg cumulative
Description: as §1, §2

Row | Compound | Prolongation of QTc interval, compared among treatments [1] | QTc Interval ([1]; 4 mg/kg) | Prolongation of QTc interval, compared among treatments ([2]; dogs, comparison in words of the three treatments) | Death or survival of dogs during or shortly after the experiment [2] | Cardiotoxicity, compared among treatments ([2]; conclusion from QTc and mortality data in dogs)
1 | Cc1nccn1C[C@@H]1CCc2c(c3ccccc3n2C)C1=O [S(−)-Ondansetron, S(−) ondansetron] | most prolonged | 0.44 ± 0.03 s | – | – | –
2 | Cc1nccn1CC1CCc2c(c3ccccc3n2C)C1=O (racemic) [R,S-Ondansetron, ondansetron] | – | – | most prolonged | survived | –
3 | Cc1nccn1C[C@H]1CCc2c(c3ccccc3n2C)C1=O [R(+)-Ondansetron, R(+) ondansetron] | shortest | – | – | survived | less cardiotoxicity than either S(−) ondansetron or racemic ondansetron
